Results taken from PubChem BioAssay (NCI).
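48-hour exposure; five concentrations; linearly interpolated endpoints. GI50: concentration for 50% inhibition of growth. TGI is the concentration that stops growth completely.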

How the values were obtained:
Experiment in all cases: inhibition of tumour cell growth, NCI panel, 48 h
A498 renal = tested on: A498 renal
ACHN renal = tested on: ACHN renal
HCT-15 colon = tested on: HCT-15 colon
M14 melanoma = tested on: M14 melanoma
MOLT-4 leukemia = tested on: MOLT-4 leukemia
SF-539 CNS = tested on: SF-539 CNS
SK-OV-3 ovarian = tested on: SK-OV-3 ovarian
U251 CNS = tested on: U251 CNS
HS 578T breast = tested on: HS 578T breast
PC-3 prostate = tested on: PC-3 prostate

## CC(C(=O)OCc1ccccc1)N(Cc1ccccc1)Cc1ccccc1 (stereo not drawn)
A498 renal
  TGI: > 100 µM
ACHN renal
  TGI: > 100 µM
HCT-15 colon
  TGI: > 100 µM
M14 melanoma
  TGI: > 100 µM
MOLT-4 leukemia
  TGI: > 100 µM
SF-539 CNS
  TGI: > 100 µM
SK-OV-3 ovarian
  TGI: > 100 µM
U251 CNS
  TGI: > 100 µM

## O=C(NNC(=S)Nc1ccccc1)c1nsc2ccccc12
ACHN renal
  TGI: > 100 µM
HCT-15 colon
  TGI: > 100 µM
M14 melanoma
  TGI: 32.9 µM
MOLT-4 leukemia
  TGI: 98.5 µM
SF-539 CNS
  TGI: 97.8 µM
U251 CNS
  TGI: > 100 µM

## COC(=O)[C@@H]1CS(=O)(=O)C(C(C)C)N1C(C)=O (stereo partly drawn)
A498 renal
  TGI: > 100 µM
ACHN renal
  TGI: > 100 µM
HCT-15 colon
  TGI: > 100 µM
HS 578T breast
  TGI: > 100 µM
M14 melanoma
  TGI: > 100 µM
PC-3 prostate
  TGI: > 100 µM
SF-539 CNS
  TGI: > 100 µM
SK-OV-3 ovarian
  TGI: > 100 µM
U251 CNS
  TGI: > 100 µM

## O=C(/C(=C(/O)c1ccccc1)c1nc2ccccc2sc1=O)c1ccccc1
A498 renal
  TGI: > 100 µM
ACHN renal
  TGI: > 100 µM
HCT-15 colon
  TGI: > 100 µM
HS 578T breast
  TGI: > 100 µM
M14 melanoma
  TGI: 33.3 µM
PC-3 prostate
  TGI: > 100 µM
SF-539 CNS
  TGI: 75 µM
SK-OV-3 ovarian
  TGI: 77.3 µM
U251 CNS
  TGI: > 100 µM

## O=C(CCN1CCOCC1)/C(=C/c1ccccc1)c1ccccc1
A498 renal
  TGI: 23.3 µM
HCT-15 colon
  TGI: 5.98 µM
MOLT-4 leukemia
  TGI: 5.81 µM
SF-539 CNS
  TGI: 9.31 µM
SK-OV-3 ovarian
  TGI: 43.3 µM
U251 CNS
  TGI: 12.9 µM

## O=c1c2cc(C(F)(F)F)ccc2sc2c(NCCCNCCO)nc3ccccc3c12
A498 renal
  GI50: 1.61 µM
  TGI: 3.06 µM
ACHN renal
  GI50: 1.51 µM
  TGI: 2.86 µM
HCT-15 colon
  GI50: 1.32 µM
  TGI: 2.77 µM
PC-3 prostate
  GI50: 1.69 µM
  TGI: 3.24 µM
SF-539 CNS
  GI50: 1.6 µM
  TGI: 3.03 µM

## CN1/C(=C/C=C/C=C/C=C2C(=O)c3ccccc3C2=O)C(C)(C)c2ccccc21
A498 renal
  TGI: 65.2 µM
ACHN renal
  TGI: > 100 µM
HCT-15 colon
  TGI: > 100 µM
HS 578T breast
  TGI: > 100 µM
M14 melanoma
  TGI: > 100 µM
SF-539 CNS
  TGI: 91.3 µM
SK-OV-3 ovarian
  TGI: > 100 µM

## C#CC(O)(c1nc2ccccc2s1)c1nc2ccccc2s1
A498 renal
  TGI: 35.2 µM
ACHN renal
  TGI: 83.2 µM
HCT-15 colon
  TGI: 60.6 µM
HS 578T breast
  TGI: > 100 µM
M14 melanoma
  TGI: 32.8 µM
MOLT-4 leukemia
  TGI: > 100 µM
PC-3 prostate
  TGI: 64.7 µM
SF-539 CNS
  TGI: 36.7 µM
U251 CNS
  TGI: 44 µM

## COc1ccccc1OCC(COC(=O)Nc1ccccc1)OC(=O)Nc1ccccc1 (stereo not drawn)
A498 renal
  TGI: > 100 µM
ACHN renal
  TGI: > 100 µM
HCT-15 colon
  TGI: > 100 µM
M14 melanoma
  TGI: > 100 µM
SF-539 CNS
  TGI: 33.4 µM
SK-OV-3 ovarian
  TGI: > 100 µM
U251 CNS
  TGI: > 100 µM

## COC(=O)[C@H](Cc1c[nH]c2ccccc12)NP(=O)(OCCC#N)OCC1OC(n2cc(C)c(=O)[nH]c2=O)CC1N=[N+]=[N-] (stereo partly drawn)
ACHN renal
  TGI: > 100 µM
HCT-15 colon
  TGI: > 100 µM
M14 melanoma
  TGI: > 100 µM
MOLT-4 leukemia
  TGI: > 100 µM
PC-3 prostate
  TGI: > 100 µM
SK-OV-3 ovarian
  TGI: > 100 µM
U251 CNS
  TGI: > 100 µM

## CCc1cccc2c3c([nH]c12)-c1ccccc1NC(=O)C3
A498 renal
  TGI: > 100 µM
HCT-15 colon
  TGI: > 100 µM
HS 578T breast
  TGI: > 100 µM
M14 melanoma
  TGI: > 100 µM
MOLT-4 leukemia
  TGI: > 100 µM
SK-OV-3 ovarian
  TGI: > 100 µM
U251 CNS
  TGI: > 100 µM

## Cc1c(CNc2ccc(C(=O)NC(CCCNC(=O)c3ccccc3C(=O)O)C(=O)O)cc2)cnc2nc(N)nc(N)c12 (stereo not drawn)
A498 renal
  GI50: > 100 µM
  TGI: > 100 µM
HCT-15 colon
  TGI: > 100 µM
M14 melanoma
  GI50: 0.0385 µM
PC-3 prostate
  GI50: < 0.0001 µM
  TGI: > 100 µM
SK-OV-3 ovarian
  GI50: > 100 µM
  TGI: > 100 µM
U251 CNS
  GI50: 0.00285 µM
  TGI: > 100 µM

## CCOC(=O)c1ccc(Nc2nc3ccccc3nc2-c2cccs2)cc1
ACHN renal
  TGI: > 100 µM
HCT-15 colon
  TGI: > 100 µM
HS 578T breast
  TGI: > 100 µM
MOLT-4 leukemia
  TGI: > 100 µM
PC-3 prostate
  TGI: > 100 µM
SF-539 CNS
  TGI: > 100 µM
U251 CNS
  TGI: > 100 µM

## O=C1NC(=O)c2ccccc2/C1=C/c1ccc2c(c1)OCO2
A498 renal
  TGI: > 100 µM
ACHN renal
  TGI: 34.3 µM
HCT-15 colon
  TGI: 31.8 µM
HS 578T breast
  TGI: 47.2 µM
M14 melanoma
  TGI: 76.5 µM
MOLT-4 leukemia
  TGI: > 100 µM
SF-539 CNS
  TGI: 46.7 µM
SK-OV-3 ovarian
  TGI: > 100 µM

## CCN1C/C(=C\c2ccc(Cl)cc2)c2nc(N)c(C#N)c(-c3ccc(Cl)cc3)c2C1
A498 renal
  TGI: > 100 µM
ACHN renal
  TGI: > 100 µM
HCT-15 colon
  TGI: > 100 µM
HS 578T breast
  TGI: > 100 µM
M14 melanoma
  TGI: > 100 µM
MOLT-4 leukemia
  TGI: > 100 µM
PC-3 prostate
  TGI: > 100 µM
SK-OV-3 ovarian
  TGI: > 100 µM
U251 CNS
  TGI: > 100 µM

## C(/C=N/NC1=NCCCCN1)=N\NC1=NCCCCN1
ACHN renal
  TGI: > 100 µM
HS 578T breast
  TGI: > 100 µM
M14 melanoma
  TGI: > 100 µM
MOLT-4 leukemia
  TGI: > 100 µM
PC-3 prostate
  TGI: > 100 µM
SF-539 CNS
  TGI: > 100 µM
SK-OV-3 ovarian
  TGI: > 100 µM
U251 CNS
  TGI: > 100 µM

## Cc1ccc(S(=O)(=O)NC(=O)NC(Cc2ccc(O)cc2)C(=O)O)cc1 (stereo not drawn)
HCT-15 colon
  TGI: > 100 µM
HS 578T breast
  TGI: > 100 µM
M14 melanoma
  TGI: > 100 µM
MOLT-4 leukemia
  TGI: > 100 µM
PC-3 prostate
  TGI: > 100 µM
SF-539 CNS
  TGI: > 100 µM
SK-OV-3 ovarian
  TGI: > 100 µM
U251 CNS
  TGI: > 100 µM

## Clc1sc(Cl)c2c1[C@@H](Cl)C[C@@H]2Cl
A498 renal
  TGI: > 100 µM
ACHN renal
  TGI: > 100 µM
HCT-15 colon
  TGI: > 100 µM
HS 578T breast
  TGI: > 100 µM
M14 melanoma
  TGI: > 100 µM
MOLT-4 leukemia
  TGI: > 100 µM
SF-539 CNS
  TGI: > 100 µM
SK-OV-3 ovarian
  TGI: > 100 µM
U251 CNS
  TGI: > 100 µM

## CC(C)(C)OC(=O)N/C(C=O)=C\C1CCCCC1
ACHN renal
  TGI: 86.4 µM
HCT-15 colon
  TGI: 41.8 µM
HS 578T breast
  TGI: 84.7 µM
M14 melanoma
  TGI: 30.4 µM
MOLT-4 leukemia
  TGI: 52 µM
PC-3 prostate
  TGI: 47.4 µM
SF-539 CNS
  TGI: 87.6 µM
SK-OV-3 ovarian
  TGI: > 100 µM
U251 CNS
  TGI: 40.3 µM

## O=C(COc1ccc(OCC(=O)N2C(=O)CC(=O)N(c3ccc(Cl)cc3)C2=S)cc1)N1C(=O)CC(=O)N(c2ccc(Cl)cc2)C1=S
A498 renal
  TGI: > 100 µM
ACHN renal
  TGI: > 100 µM
HCT-15 colon
  TGI: > 100 µM
M14 melanoma
  TGI: > 100 µM
MOLT-4 leukemia
  TGI: > 100 µM
PC-3 prostate
  TGI: > 100 µM
SK-OV-3 ovarian
  TGI: > 100 µM
U251 CNS
  TGI: > 100 µM

## Fc1cccc(F)c1C1SCc2nc3cc(Cl)c(Cl)cc3n21 (stereo not drawn)
ACHN renal
  TGI: > 100 µM
HCT-15 colon
  TGI: > 100 µM
HS 578T breast
  TGI: > 100 µM
M14 melanoma
  TGI: > 100 µM
MOLT-4 leukemia
  TGI: > 100 µM
PC-3 prostate
  TGI: > 100 µM
SF-539 CNS
  TGI: > 100 µM
SK-OV-3 ovarian
  TGI: > 100 µM
U251 CNS
  TGI: > 100 µM

## O=P1(N2CCOCC2)OCCO1
A498 renal
  TGI: > 100 µM
ACHN renal
  TGI: > 100 µM
HCT-15 colon
  TGI: > 100 µM
HS 578T breast
  TGI: > 100 µM
M14 melanoma
  TGI: > 100 µM
MOLT-4 leukemia
  TGI: > 100 µM
PC-3 prostate
  TGI: > 100 µM
U251 CNS
  TGI: > 100 µM
